Earlier results as cited in US7163702B1 (priority 2004, dated 2007).

Conditions: human, in vivo

N=C(N)c1ccc(OCCCCCOc2ccc(C(=N)N)cc2)cc1 [pentamidine]
incidence of adverse reactions: around 50%
